Key:
[1] = target: T1, AAK1 (full length human) with AP2M1 in HEK293F cells (Homo sapiens, UniProt Q2M2I8); experiment: HEK281 cell-based assay (phospho-mu2 Western blot in transfected HEK293F cells); conditions: 3 hours, inhibition of mu2 phosphorylation
T1 construct: expressed in transfected cells; host or cells: HEK293F
Experimental: HEK293F cells were cultured in media containing DMEM (Gibco, cat. #11965), 10% FBS (SAFC Biosciences, cat. #12103C), 1×GPS (glutamine, penicillin and streptomycin). On day one, cells were plated on a 10 cm dish so that they are ˜80% confluent at time of transfection. Roughly 12 million cells were in a 10 cm dish at time of transfection. On day two, each dish was transfected with 48 ug DNA and 144 ul Lipofectamine 2000 (Invitrogen, cat. #11668-019). The DNA was comprised of a mixture (per 10 cm dish) containing 3 ug AAK1/HA/pIRES (full length human, NCBI accession no. NP_055726.2), 45 μg Flag/AP2MI/pcDNA (full length human), and 1.5 ml OPTI-MEM. The Lipofectamine 2000 is made up of a mixture (per 10 cm dish) containing 144 μl Lipofectamine 2000 and 1.5 ml OPTI-MEM. Each mixture was transferred to individual 15 ml tubes and incubated at RT for 5 minutes, and then the two mixes were combined and incubated at RT for 20 minutes. Growth media was then aspirated from each 10 cm plate and replaced with 10 ml of DMEM+10% FBS (no GPS). Finally, 3 ml DNA/Lipofectamine mix was added to each 10 cm dish and mix gently followed by incubate of plate overnight at 37° C. and 5% CO2.
On day three, compounds were diluted in 100% DMSO at 1000× final concentration, followed by 3-fold serial dilutions for a total of 5 concentrations tested. Four compounds were tested per 10 cm dish. One ul of each compound dilution was then pipetted into a deep-well, 96-well plate, followed by addition of 500 μl DMEM+0.5% FBS into each well for a 2× final concentration of each compound. Cells were resuspended in a 10 cm dish by simple pipetting (HEK293 cells come off the plate that easy at this point) and then transferred to a 50 ml conical tube and pelleted by centrifugation at 1000 rpm for 5 min. Cell pellets were then resuspended in 2.75 ml DMEM+0.5% FBS per 10 cm dish and 100 μl of cell suspension transferred into each well of 96-well TC plate. Finally, 100 μl of 2× compound diluted in DMEM+0.5% FBS was then added into wells containing cell suspension for a 1× final concentration. Plates were then incubated at 37° C. and 5% CO2 for 3 hours followed by transferring of cell suspensions from each well into 12-tube PCR strips. The PCR strips were spun in a tip rack at 1000 rpm for 5 minutes to pellet cells and media was then removed by pipetting without disturbing the cell pellet.
To prepare for Western Blot analysis, cell pellets were resuspend in 40 ul 1×LDS-PAGE sample buffer (Invitrogen, cat. # NP0008)+2× Halt phosphatase and protease inhibitor cocktail (Thermo Scientific, cat. #1861284), followed by sonicating each with microtip sonicator set at 5 for 8-10 seconds. Five ul of 10× NuPage Sample Reducing Agent (with […]) was to each sample followed by heat denaturing at 70 C for 10 min on PCR machine. A total of 10 μl per sample was loaded into each lane of a 4-20% Tris-Glycine Criterion 26-well gel (Biorad, cat. #345-0034) for the phospho-mu2 blot and 10 μl per lane in a 4-12% Bis-Tris (+MES buffer) NuPAGE 26-well gel (Invitrogen, cat. # WG1403BX10) for the mu2 blot. For controls, 2 ng of phospho-mu2 or 20 ng mu2/Flag proteins were loaded in the last well of each gel. After SDS-PAGE, samples on each gel were transferred to PVDF membrane using an iBlot and membranes were blocked for one hour in TBST+5% milk, followed by wash 3× for 5-10 min with TBST. Criterion gels were probed with rabbit anti-phospho-mu2 (1:5000; a rabbit polyclonal antibody produced by New England Peptide and affinity purified at Lexicon) in TBST+5% BSA, whereas, NuPAGE gels were probed with mouse anti-Flag (1:500; Sigma, cat. # F1804) in TBST+5% milk, and these primary antibodies were incubated overnight at 4° C. on a rocker. […]

GST-Xa-hAAK1 = target: T2, GST-Xa-hAAK1 (Homo sapiens, UniProt Q2M2I8); experiment: AAK1 kinase assay; type: biochemical; conditions: ATP 22 μM, 3 hours at room temperature
T2 construct: made in house
Experimental: The assays were performed in U-bottom 384-well plates. […] The reactions were initiated by the combination of bacterially expressed, GST-Xa-hAAK1 with substrates and test compounds. The reactions were incubated at room temperature for 3 hours and terminated by adding 60 μl of 35 mM EDTA buffer to each sample. The reactions were analyzed on the Caliper LabChip 3000 (Caliper, Hopkinton, Mass.) by electrophoretic separation of the fluorescent substrate and phosphorylated product. […] Compounds were dissolved at 10 mM in dimethylsulfoxide (DMSO) and evaluated at eleven concentrations. IC50 values were derived by non-linear regression analysis.

T2 sequence (Q2M2I8 whole entry): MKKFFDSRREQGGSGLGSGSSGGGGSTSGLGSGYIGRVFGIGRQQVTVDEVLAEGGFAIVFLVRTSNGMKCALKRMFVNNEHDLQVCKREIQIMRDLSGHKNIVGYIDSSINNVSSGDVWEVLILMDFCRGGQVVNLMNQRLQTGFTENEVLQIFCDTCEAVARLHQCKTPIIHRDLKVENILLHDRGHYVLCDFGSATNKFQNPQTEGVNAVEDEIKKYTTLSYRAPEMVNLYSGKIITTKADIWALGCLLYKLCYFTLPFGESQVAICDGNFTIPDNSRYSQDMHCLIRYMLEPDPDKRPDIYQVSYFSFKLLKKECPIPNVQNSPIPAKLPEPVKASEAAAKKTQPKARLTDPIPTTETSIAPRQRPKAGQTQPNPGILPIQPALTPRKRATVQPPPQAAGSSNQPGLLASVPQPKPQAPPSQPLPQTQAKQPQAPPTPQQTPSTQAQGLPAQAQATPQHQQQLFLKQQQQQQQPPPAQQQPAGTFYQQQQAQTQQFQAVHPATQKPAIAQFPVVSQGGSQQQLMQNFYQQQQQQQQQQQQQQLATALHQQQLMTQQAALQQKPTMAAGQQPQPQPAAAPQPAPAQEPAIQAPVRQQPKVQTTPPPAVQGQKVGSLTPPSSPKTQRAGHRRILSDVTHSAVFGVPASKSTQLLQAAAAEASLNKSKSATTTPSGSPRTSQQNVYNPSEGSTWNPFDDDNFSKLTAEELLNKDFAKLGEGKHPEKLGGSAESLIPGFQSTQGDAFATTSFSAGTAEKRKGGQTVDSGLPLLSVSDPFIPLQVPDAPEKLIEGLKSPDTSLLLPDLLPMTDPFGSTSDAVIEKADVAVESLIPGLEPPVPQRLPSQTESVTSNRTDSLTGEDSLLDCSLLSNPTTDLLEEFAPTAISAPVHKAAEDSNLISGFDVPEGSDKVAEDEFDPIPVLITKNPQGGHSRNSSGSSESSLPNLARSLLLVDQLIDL
T1 sequence (Q2M2I8 whole entry): as above

IC50 ([1]; given as IC50 range) [nM] | IC50 (GST-Xa-hAAK1; given as IC50 range) [nM] | IC50 [1] [nM] | IC50 (GST-Xa-hAAK1) [nM] | Structure (SMILES)
1 to 10 | 1 to 10 |  |  | Cc1nccc2c1c(=O)n(C)c1cc(OC[C@@H](N)CC(C)C)c(F)cc21 [Example 70, (S)-8-(2-amino-4-methylpentyloxy)-9-fluoro-4,6-dimethylbenzo[c][2,7]naphthyridin-5(6H)-one]
1 to 10 | 1 to 10 |  |  | Cc1cc2c3ccnc(C)c3c(=O)n(C)c2cc1OC[C@@H](N)CC(C)C [Example 63, (S)-8-(2-amino-4-methylpentyloxy)-4,6,9-trimethylbenzo[c][2,7]naphthyridin-5(6H)-one]
 |  | 3.3 | 0.64 | Cc1nccc2c1c(=O)n(C)c1cc(OCC(C)(N)CC(C)C)c(Cl)cc21 (stereo not drawn) [Example 41, 8-((2-amino-2,4-dimethylpentyl)oxy)-9-chloro-4,6-dimethylbenzo[c][2,7]naphthyridin-5(6H)-one]
1 to 10 | 1 to 10 |  |  | Cc1nccc2c1c(=O)n(C)c1cc(OC[C@@H](N)CC(C)C)c(C(F)(F)F)cc21 [Example 75, (S)-8-(2-amino-4-methylpentyloxy)-4,6-dimethyl-9-(trifluoromethyl)benzo[c][2,7]naphthyridin-5(6H)-one]
1 to 10 |  |  | 0.12 | Cc1nccc2c1c(=O)n(C)c1cc(OC[C@@H](N)CC3CC3)c(Cl)cc21 [Example 23, (S)-8-(2-amino-3-cyclopropylpropoxy)-9-chloro-4,6-dimethylbenzo[c][2,7]naphthyridin-5(6H)-one]
10 to 100 | 10 to 100 |  |  | Cc1nccc2c1c(=O)n(C)c1cc(OC[C@@H](N)CC(C)C)ccc21 [Example 16, (S)-8-((2-amino-4-methylpentyl)oxy)-4,6-dimethylbenzo[c][2,7]naphthyridin-5(6H)-one]
 | 1 to 10 | 1.8 |  | CC(C)C[C@H](N)COc1cc2c(cc1-c1cnco1)c1ccncc1c(=O)n2C [Example 48, (S)-8-(2-amino-4-methylpentyloxy)-6-methyl-9-(oxazol-5-yl)benzo[c][2,7]naphthyridin-5(6H)-one]
1 to 10 |  |  | 3 | CC(C)C[C@H](N)COc1ccc2c3ccnc(N)c3c(=O)n(C)c2c1 [Example 17, (S)-4-amino-8-(2-amino-4-methylpentyloxy)-6-methylbenzo[c][2,7]naphthyridin-5(6H)-one]
 | 1 to 10 | 3.1 |  | CCc1cc2c3ccncc3c(=O)n(C)c2cc1OC[C@@H](N)CC(C)C [Example 46, (S)-8-(2-amino-4-methylpentyloxy)-9-ethyl-6-methylbenzo[c][2,7]naphthyridin-5(6H)-one]
10 to 100 | 1 to 10 |  |  | CC(C)CC(C)(N)COc1ccc2c3c(F)cncc3c(=O)n(C)c2c1 (stereo not drawn) [Example 97, 8-(2-amino-2,4-dimethylpentyloxy)-1-fluoro-6-methylbenzo[c][2,7]naphthyridin-5(6H)-one]
1 to 10 | 1 to 10 |  |  | Cc1nccc2c1c(=O)n(C)c1cc(OCC(N)CCC(F)(F)F)c(C#N)cc21 (stereo not drawn) [Example 73, 8-(2-amino-5,5,5-trifluoropentyloxy)-4,6-dimethyl-5-oxo-5,6-dihydrobenzo[c][2,7]naphthyridine-9-carbonitrile]
1 to 10 |  |  | 0.55 | Cc1cc2c3ccnc(C)c3c(=O)n(C)c2cc1OC[C@@H](N)CC1CC1 [Example 25, (S)-8-(2-amino-3-cyclopropylpropoxy)-4,6,9-trimethylbenzo[c][2,7]naphthyridin-5(6H)-one]
1 to 10 | 1 to 10 |  |  | Cc1nccc2c1c(=O)n(C)c1cc(OC[C@@H](N)CC(C)C)c(Cl)cc21 [Example 62, (S)-8-((2-amino-4-methylpentyl)oxy)-9-chloro-4,6-dimethylbenzo[c][2,7]naphthyridin-5(6H)-one]
10 to 100 | 10 to 100 |  |  | Cn1c(=O)c2cnccc2c2ccc(OCC(N)CCC(F)(F)F)cc21 (stereo not drawn) [Example 15, 8-(2-amino-5,5,5-trifluoropentyloxy)-6-methylbenzo[c][2,7]naphthyridin-5(6H)-one]
 | 10 to 100 | 11 |  | Cc1nccc2c1c(=O)n(C)c1cc(OC(C)[C@@H](N)CC(C)C)ccc21 (mixture of isomers) [Example 33, 8-(((2S,3S)-3-amino-5-methylhexan-2-yl)oxy)-4,6 dimethylbenzo[c][2,7]naphthyridin-5(6H)-one]
10 to 100 |  |  | 3.9 | Cc1nccc2c1c(=O)n(C)c1cc(OCC(C)(N)CC(C)C)ccc21 (stereo not drawn) [Example 32, 8-((2-amino-2,4-dimethylpentyl)oxy)-4,6-dimethylbenzo[c][2,7]naphthyridin-5(6H)-one]
1 to 10 |  |  | 2.9 | Cc1cc2c3ccnc(C)c3c(=O)n(C)c2cc1OC[C@@H](N)CC1CCC1 [Example 26, (S)-8-(2-amino-3-cyclobutylpropoxy)-4,6,9-trimethylbenzo[c][2,7]naphthyridin-5(6H)-one]
1 to 10 | 1 to 10 |  |  | Cc1nccc2c1c(=O)n(C)c1cc(OC[C@@H](N)CC3CCC3)c(Cl)cc21 [Example 24, (S)-8-(2-amino-3-cyclobutylpropoxy)-9-chloro-4,6-dimethylbenzo[c][2,7]naphthyridin-5(6H)-one]
1 to 10 | 1 to 10 |  |  | Cc1nccc2c1c(=O)n(C)c1cc(OC[C@@H](N)CC(C)C)c(-c3cncs3)cc21 [Example 83, (S)-8-(2-amino-4-methylpentyloxy)-4,6-dimethyl-9-(thiazol-5-yl)benzo[c][2,7]naphthyridin-5(6H)-one]
 | 1 to 10 | 2.1 |  | CC(C)C[C@H](N)COc1cc2c(cc1C1CC1)c1ccncc1c(=O)n2C [Example 6, (S)-8-((2-amino-4-methylpentyl)oxy)-9-cyclopropyl-6-methylbenzo[c][2,7]naphthyridin-5(6H)-one]
< 1 | < 1 |  |  | Cc1nccc2c1c(=O)n(C)c1cc(OC[C@@H](N)CC=C(F)F)c(C#N)cc21 [Example 106, (S)-8-((2-amino-5,5-difluoropent-4-en-1-yl)oxy)-4,6-dimethyl-5-oxo-5,6-dihydrobenzo[c][2,7]naphthyridine-9-carbonitrile]

Structure (SMILES) | IC50 ([1]; given as IC50 range) [nM] | IC50 (GST-Xa-hAAK1; given as IC50 range) [nM] | IC50 [1] [nM] | IC50 (GST-Xa-hAAK1) [nM]
C=CCn1c(=O)c2cnccc2c2ccc(OC[C@@H](N)CC(C)C)cc21 [Example 9, (S)-6-allyl-8-((2-amino-4-methylpentyl)oxy)benzo[c][2,7]naphthyridin-5(6H)-one] |  |  | 24 | 9.7
CC(C)C[C@H](N)COc1cc2c(cc1F)c1ccncc1c(=O)n2C [Example 14, (S)-8-((2-amino-4-methylpentyl)oxy)-9-fluoro-6-methylbenzo[c][2,7]naphthyridin-5(6H)-one] | 1 to 10 |  |  | 7
Cc1nccc2c1c(=O)n(C)c1cc(OC[C@@H](N)CC(C)C)c(C#N)cc21 [Example 64, (S)-8-(2-amino-4-methylpentyloxy)-4,6-dimethyl-5-oxo-5,6-dihydrobenzo[c][2,7]naphthyridine-9-carbonitrile] |  | < 1 | 0.6 | 

Reference: patent US8901305B2, “Aryl lactam kinase inhibitors” (Bristol-Myers Squibb Company, priority 2012, dated 2014)
